Values quoted from earlier work, collected in paper PMC12491383, “Organ and tumour dosimetry of ^177Lu-rhPSMA-10.1, a novel PSMA-targeted therapy: results from a Phase I trial” (European Journal of Nuclear Medicine and Molecular Imaging, 2025).

Tests used:
[1] = design: method as in PMID 38050121; conditions: cited from earlier work
[2] = design: method as in PMID 34887335; conditions: reported data; cited from earlier work

SMILES: O=C([O-])CN1CCN(CC(=O)[O-])CCN(CC(=O)NCC2CCC(C(=O)N[C@@H](Cc3ccc4ccccc4c3)C(=O)NCCCC[C@H](NC(=O)N[C@@H](CCC(=O)O)C(=O)O)C(=O)O)CC2)CCN(CC(=O)[O-])CC1.[177Lu+3] (stereo partly shown) [^177Lu-PSMA-617, lutetium Lu 177 vipivotide tetraxetan]
- Absorbed dose to the bone marrow ([1]; VISION dosimetry substudy): 0.035 Gy/GBq
- Absorbed dose in the salivary glands ([1]; VISION substudy): 0.63 Gy/GBq
- Absorbed dose in the kidneys ([1]; dosimetry substudy of the Phase III VISION trial): 0.43 Gy/GBq
- Tumour effective half-life [2]: 61 h
